Laboratory results published in patent publication US11965039B2, “Compstatin analogues and their medical uses” (priority 2018, dated 2024).
Starred links: 1 amine or outer side, 2 acyl side, 3 side chain; linkers in the order of their positions; H or OH if unused. Positions of bridges follow the written chain, without caps; N, C: chain ends. Non-standard residues stand in square brackets, D forms with d. Residues, ends and D or L forms follow the SMILES beside them. Groups on a side chain read outwards from the residue. *: point of attachment. Trp(1-Me) = Cn1cc(C[C@H](N)C(=O)O)c2ccccc21; C18 diacid = O=C(O)CCCCCCCCCCCCCCCCC(=O)*; γGlu = O=C(O)[C@H](CCC(=O)[*:2])N[*:1]; AEEA = NCCOCCOCC(=O)O; Sar = CNCC(=O)O

What was measured:
[1] = Solubility test at 10 mg/mL (visual inspection and light scattering); type: physicochemical; conditions: for Solubility, Condition 1: Acetate pH 4; for Solubility, Condition 2: Acetate pH 5; for Solubility, Condition 4: Phosphate pH 7; for Solubility, Condition 5: Phosphate pH 7.5
Description: The solubility of compounds was assessed by measuring light scattering over a pH interval from pH 4 to pH 7.5.
Compounds were dissolved in a stock solution of 20 mg/mL in H2O at pH 2.5 or pH 10. These stock solutions were diluted 1:1 with 200 mM buffered solution to reach a final solution of 10 mg/mL compound in 100 mM buffer. The 5 investigated conditions were (1) acetate pH 4.0, (2) acetate pH 5.0, (3) phosphate pH 6.0, (4) phosphate pH 7 and (5) phosphate pH 7.5.
Visual inspection included manually checking the 96 well plate for wells that are clear or non-clear. In addition to this a picture of the 96 well plate is taken.
Absorbance was measured at four wavelengths: 280 nm, 325 nm, 340 nm and 360 nm in an UV transparent 96 well microplate in a SpectraMax 190 microplate reader (Molecular Devices).
The criteria for this was a combination of visual inspection and light scattering not exceeding 0.1 AU, where values below 0.1 AU are good in visually clear samples.

[2] = test system: classical complement pathway; test: In vitro haemolysis assay (inhibition of classical complement pathway); type: cell-based, human; conditions: human serum, sensitized sheep red blood cells; Table 3, given as upper bounds; read-out: IC50, inhibition of hemolysis
How it was run: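 Compound dilutions preincubated 15 min at room temperature with diluted human serum (titrated per batch for 70-90% maximal haemolysis), then antibody-sensitized sheep RBC (10^7/well) added for 30 min at 37 °C in Tris/casein buffer, pH 7.4. Stopped with EDTA; haemolysis read at 405 nm; IC50 by 4PL fit.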

## CC[C@H](C)[C@@H]1NC(=O)[C@@H](NC(=O)[C@@H](NC(=O)[C@H](CCC(=O)O)NC(=O)CNC(=O)[C@H](CCC(=O)O)NC(C)=O)[C@@H](C)CC)CSSC[C@@H](C(=O)N[C@H](C(N)=O)[C@@H](C)O)NC(=O)[C@H](CCCNC(=N)N)NC(=O)[C@H](Cc2c[nH]cn2)NC(=O)[C@H](CCC(=O)O)NC(=O)CNC(=O)[C@H](Cc2c[nH]c3ccccc23)NC(=O)[C@H](CC(=O)O)NC(=O)[C@H](CCC(N)=O)NC(=O)[C@H](Cc2c[nH]c3ccccc23)NC1=O [Compound 30] (Ac-EGEICIWQDWGEHRCT-NH2; disulfide 5-15)
[1]
  Solubility, Condition 1: − (“−” denotes lack of solubility at the given condition, as UV absorbance at 340 nm exceeds 0.1 AU and/or it is visibly turbid or contains particles)
  Solubility, Condition 2: − (“−” denotes lack of solubility at the given condition, as UV absorbance at 340 nm exceeds 0.1 AU and/or it is visibly turbid or contains particles)
  Solubility, Condition 4: + (“+” denotes solubility at the given condition, as determined by UV absorbance being less than 0.1 AU at 340 nm and the sample being clear when manually inspected)
  Solubility, Condition 5: + (“+” denotes solubility at the given condition, as determined by UV absorbance being less than 0.1 AU at 340 nm and the sample being clear when manually inspected)
[2]
  IC50: < 100 nM

## CC[C@H](C)[C@@H]1NC(=O)[C@@H](NC(=O)[C@H](Cc2ccccc2)NC(=O)[C@H](CCC(=O)O)NC(=O)[C@H](CO)NC(C)=O)CSSC[C@@H](C(=O)N(C)CC(=O)N[C@@H](CCC(=O)O)C(N)=O)NC(=O)[C@H](CCCNC(=N)N)NC(=O)[C@H](Cc2c[nH]cn2)NC(=O)[C@H](CCC(=O)O)NC(=O)CNC(=O)[C@H](Cc2c[nH]c3ccccc23)NC(=O)[C@H](CC(=O)O)NC(=O)[C@H](CCC(N)=O)NC(=O)[C@H](Cc2cn(C)c3ccccc23)NC1=O [Compound 78] (Ac-SEFCI[Trp(1-Me)]QDWGEHRC[Sar]E-NH2; disulfide 4-14)
[1]
  Solubility, Condition 1: − (“−” denotes lack of solubility at the given condition, as UV absorbance at 340 nm exceeds 0.1 AU and/or it is visibly turbid or contains particles)
  Solubility, Condition 2: − (“−” denotes lack of solubility at the given condition, as UV absorbance at 340 nm exceeds 0.1 AU and/or it is visibly turbid or contains particles)
  Solubility, Condition 4: + (“+” denotes solubility at the given condition, as determined by UV absorbance being less than 0.1 AU at 340 nm and the sample being clear when manually inspected)
  Solubility, Condition 5: + (“+” denotes solubility at the given condition, as determined by UV absorbance being less than 0.1 AU at 340 nm and the sample being clear when manually inspected)
[1]; Phosphate pH 6
  Solubility, Condition 3: + (“+” denotes solubility at the given condition, as determined by UV absorbance being less than 0.1 AU at 340 nm and the sample being clear when manually inspected)
[2]
  IC50: < 100 nM

## CC[C@H](C)[C@@H]1NC(=O)[C@@H](NC(=O)[C@H](Cc2ccc(O)cc2)NC(=O)[C@H](CCC(=O)O)NC(=O)[C@H](CO)NC(C)=O)CSSC[C@@H](C(=O)N(C)CC(=O)N[C@@H](CCC(=O)O)C(=O)NCC(=O)N[C@@H](CCC(=O)O)C(=O)NCCOCCOCC(=O)NCCOCCOCC(=O)N[C@@H](CCCCNC(=O)CC[C@H](NC(=O)CNC(=O)CC[C@H](NC(=O)CCCCCCCCCCCCCCCCC(=O)O)C(=O)O)C(=O)O)C(N)=O)NC(=O)[C@H](CCCNC(=N)N)NC(=O)[C@H](Cc2c[nH]cn2)NC(=O)[C@H](CCC(=O)O)NC(=O)CNC(=O)[C@H](Cc2c[nH]c3ccccc23)NC(=O)[C@H](CC(=O)O)NC(=O)[C@H](CCC(N)=O)NC(=O)[C@H](Cc2cn(C)c3ccccc23)NC1=O [Compound 117] (Ac-SEYCI[Trp(1-Me)]QDWGEHRC[Sar]EGE[AEEA][AEEA]K([γGlu-Gly-γGlu-C18 diacid])-NH2; disulfide 4-14)
[2]
  IC50: < 250 nM
